The source of these data is patent US6451809B2 (dated 2002).

In general, melting point refers to the temperature of the solid-liquid transition. With `Cc1ccc(CNC(=O)C2=C3N(CCC2=O)c2ccccc2N3CCN(C)C)cc1`, the melting point was 120 to 122 °C.
To `CCNCCOc1ccc(NC(=O)C2=C(O)CCn3c2nc2ccccc23)cc1.Cl` belongs 60 to 65 °C.
Regarding `Cl.O=C(Nc1ccc(OCCN2CCCC2)cc1)C1=C(O)CCn2c1nc1ccccc12`, the melting point was in the range of 130 to 142 °C.
To `CCN(CC)CCOc1ccncc1NC(=O)C1=C(O)CCn2c1nc1ccccc12.Cl` belongs 175 to 178 °C; to `Cl.O=C(Nc1cnccc1OCCN1CCCC1)C1=C(O)CCn2c1nc1ccccc12`, 170 to 174 °C.
Under `Cl.O=C(Nc1cnccc1OCCN1CCCCC1)C1=C(O)CCn2c1nc1ccccc12` stands 225 to 230 °C.
To `Cl.O=C(Nc1cnccc1OCCOCCN1CCCC1)C1=C(O)CCn2c1nc1ccccc12` belongs 55 to 65 °C.
As to `Cl.O=C(Nc1cnccc1OCCCN1CCCC1)C1=C(O)CCn2c1nc1ccccc12`, the melting point lay within 60 to 68 °C.
Under `CN(C)CCN1C2=C(C(=O)NCc3ccccc3Cl)C(=O)CCN2c2ccccc21` stands 138 to 140 °C.
